Data on 4 molecules can be found in article PMC5640878, “The GlyR Extracellular β8–β9 Loop – A Functional Determinant of Agonist Potency” (Frontiers in Molecular Neuroscience, 2017).

Molecules are shown by their SMILES. Where two headings read alike, the source gives them in different places.

One assay concerns the target GlyRα1^Q177Aβ (UniProt P48167+Q64018, Q205A). In words: whole-cell patch clamp recordings of transfected HEK293 cells. (In general: The patch-clamp technique gives a direct electrical read-out from membranes.)
Assay [1] has as its system GlyR R65 mutated to alanine. The note with it: ref Grudzinska et al., 2005; cited from earlier work.
The subject of assay [2] is GlyR R65 mutated to lysine. The note with it: ref Grudzinska et al., 2005; cited from earlier work.
The next assay deals with GlyRα1^Q177K. The note with it: shaky mouse; ref Schaefer et al., 2017; cited from earlier work.
For a further assay, the target named is GlyRα1^Q177Dβ (UniProt P48167+Q64018, Q205D). In words: whole-cell patch clamp recordings of transfected HEK293 cells.
The next assay has as its system GlyRα1^Q177β variants. The note with it: saturating glycine (1 mM); HEK293, whole-cell. The method, then:
(§1) Media were exchanged after 6–24 h.
(§2) All experiments were performed at room temperature.

The target of a further assay is T1, GlyRα1β WT (UniProt P48167+Q64018).
T1 construct: expressed in transfected cells; host or cells: HEK293
In words: whole-cell patch clamp recordings of transfected HEK293 cells. In kind it is cell-based, murine. The method, then: as §1, §2

The target in the next assay is GlyRα1^Q177Eβ (UniProt P48167+Q64018, Q205E). The description is as above.
The target of another assay is GlyRα1^Q177Rβ (UniProt P48167+Q64018, Q205R). Described as above.
In another assay the target is GlyRα1^Q177Kβ (UniProt P48167+Q64018, Q205K). The description is as above.
The next assay addresses GlyRα1^Q177Nβ (UniProt P48167+Q64018, Q205N). The description is as above.
In the next assay the target is GlyRα1^Q177Gβ (UniProt P48167+Q64018, Q205G). The assay is described as above.
A further assay addresses GlyRα1^Q177Wβ (UniProt P48167+Q64018, Q205W). The description is as above.
The target in another assay is GlyRα1^Q177Cβ (UniProt P48167+Q64018, Q205C). Described as above.
[3] abbreviates: 100 μM glycine, HEK293, co-expressed with GlyRβ, whole-cell.
[4] abbreviates: Hill coefficient of glycine concentration-response curve.
Where [5] appears, read: read-out: EC50 glycine, HEK293, α1:β 1:2, whole-cell currents, 1–3000 μM glycine.
[6] abbreviates: 100 μM β-alanine, HEK293, whole-cell.
Setting [7] is: Hill coefficient of β-alanine concentration-response curve.
Where [8] appears, read: saturating 10 mM β-alanine, HEK293, whole-cell.
[9] abbreviates: 100 μM taurine, HEK293, whole-cell.
Where [10] appears, read: Hill coefficient of taurine concentration-response curve.
Where [11] appears, read: 10 mM taurine, HEK293, whole-cell, mutant probably not completely saturated.

The EC50 is the concentration at which the effect is half-maximal.

Method for GlyRα1^Q177Aβ: (§3) HEK293 cells were transiently transfected using a modified calcium phosphate precipitation method. A mixture of plasmid DNA, CaCl2, 0.1x TE buffer and 2x HBS (50 mM HEPES, 12 mM glucose, 10 mM KCl, 280 mM NaCl, 1.5 mM Na2HPO4) was applied onto the cells. A GlyRα1 to GlyRβ ratio of 1:2 was used for co-expression. For GlyRα1:GlyRβ:GFP co-expression, a ratio of 1:2:1 was transfected. The same amount of DNA was used for GlyRα1 WT and mutants. Media were exchanged after 6–24 h. Immunocytochemical stainings and electrophysiological experiments were always done 24 h after transfection, biotinylation experiments were performed 48 h after transfection.
(§4) The patch clamp technique was used to measure current amplitudes (I) of transfected HEK293 cells. Currents were amplified using an EPC-9 amplifier and the software Patchmaster (HEKA, Lambrecht, Germany). Cells were patched 24 h after transfection in a whole-cell configuration mode. […] All agonist and antagonists were applied using an Octaflow II system (ALA Scientific Instruments, Farmingdale, NY, United States). The extracellular buffer consisted of (in mM): 137 NaCl, 5.4 KCl, 1.8 CaCl2, 1 MgCl2, 5 HEPES, pH adjusted to 7.4 with NaOH. The intracellular buffer contained (in mM): 120 CsCl, 20 N(Et)4Cl, 1 CaCl2, 2 MgCl2, 11 EGTA, 10 HEPES, pH adjusted to 7.2 with CsOH. Recording pipettes with an open resistance of 4–6 MΩ were manufactured from borosilicate capillaries using a P97 horizontal puller (Sutter Instrument, Novato, CA, United States). Cells were held at -60 mV and fast capacitances were in range of 11–13 pF. All experiments were performed at room temperature.
(§5) The following Hill equation was used: I = Imax ^∗ c^nHill/(c^nHill + EC50^nHill). I refers to the current amplitude at the given agonist concentration c, Imax is the current amplitude at a saturating agonist, EC50 refers to the agonist concentration evoking half-maximal current responses and nHill is the Hill coefficient.
Method for GlyRα1^Q177Cβ: as §3, §4, §5
Method for GlyRα1^Q177Dβ: as §3, §4, §5
Method for GlyRα1^Q177Eβ: as §3, §4, §5
Method for GlyRα1^Q177Gβ: as §3, §4, §5
Method for GlyRα1^Q177Kβ: as §3, §4, §5
Method for GlyRα1^Q177Nβ: as §3, §4, §5
Method for GlyRα1^Q177Rβ: as §3, §4, §5
Method for GlyRα1^Q177Wβ: as §3, §4, §5

In the case of `NCC(=O)O` [glycine], the “increase in glycine EC50 compared to GlyRα1β WT” value was 3.6 fold at GlyRα1^Q177Aβ; 2.3 fold at GlyRα1^Q177Dβ; 1.8 fold on GlyRα1^Q177Eβ; 4 fold at GlyRα1^Q177Rβ; 5.3 fold on GlyRα1^Q177Kβ; 1.6 fold at GlyRα1^Q177Nβ. In addition, the “increase in glycine EC50 compared to GlyRα1β WT” value was found to be 4.5 fold at GlyRα1^Q177Gβ, 2.2 fold at GlyRα1^Q177Wβ and 1.5 fold at GlyRα1^Q177Cβ. Moreover, the “Mean Igly 100 μM ± SEM” value is recorded as 0.8 ± 0.3 nA on GlyRα1^Q177Aβ (setting [3]); 0.9 ± 0.3 nA on GlyRα1^Q177Dβ (setting [3]); 3.8 ± 0.3 nA at GlyRα1β WT (setting [3]); 1.6 ± 0.2 nA on GlyRα1^Q177Eβ (setting [3]); 0.8 ± 0.07 nA on GlyRα1^Q177Rβ (setting [3]); 0.6 ± 0.07^∗∗∗ nA at GlyRα1^Q177Kβ (setting [3]). Besides, the “Mean Igly 100 μM ± SEM” value at GlyRα1^Q177Nβ (setting [3]) stood at 1.2 ± 0.2 nA; on GlyRα1^Q177Gβ (setting [3]) it was 0.3 ± 0.08 nA; at GlyRα1^Q177Wβ (setting [3]) it was 1.8 ± 0.3 nA; on GlyRα1^Q177Cβ (setting [3]), 1.8 ± 0.3 nA. For the same molecule, the nH glycine at GlyRα1^Q177Aβ (setting [4]) worked out at 2.0; on GlyRα1^Q177Dβ (setting [4]) it was 3.4; on GlyRα1β WT (setting [4]) it was 1.9; at GlyRα1^Q177Eβ (setting [4]), 2.6; at GlyRα1^Q177Rβ (setting [4]), 2.0; on GlyRα1^Q177Kβ (setting [4]), 2.2. The nH glycine at GlyRα1^Q177Nβ (setting [4]) turned out to be 3.0; on GlyRα1^Q177Gβ (setting [4]), 2.5; on GlyRα1^Q177Wβ (setting [4]), 3.7; at GlyRα1^Q177Cβ (setting [4]), 2.1. In addition, the half-maximal effective concentration (EC50) at GlyRα1^Q177Aβ (setting [5]) was 208 ± 22 µM; on GlyRα1^Q177Dβ (setting [5]), 137 ± 4 µM; at GlyRα1β WT (setting [5]), 58 ± 4 µM; on GlyRα1^Q177Rβ (setting [5]), 231 ± 4 µM; on GlyRα1^Q177Kβ (setting [5]) it was 312 ± 7 µM; on GlyRα1^Q177Gβ (setting [5]), 262 ± 13 µM. Further, on GlyRα1^Q177Wβ (setting [5]), the half-maximal effective concentration (EC50) came to 130 ± 12 µM. Also, the “decrease in glycine EC50” value in assay [1] is 1250 fold; in [2] it was 200 fold. The “binding to the mutated receptor compared to GlyRα1 WT” value in the assay on GlyRα1^Q177K is “bound with the same efficiency”. Further, the “Imax values in comparison to GlyRα1β WT” value with GlyRα1^Q177β variants is given as “No significant differences”.

`NCCC(=O)O` [β-alanine]: the “agonist-induced inward current at 100 μM β-alanine” value stood at 1.3 ± 0.3 nA on GlyRα1β WT (setting [6]), 0.2 ± 0.07 nA on GlyRα1^Q177Rβ (setting [6]) and 0.87 ± 0.4 nA at GlyRα1^Q177Nβ (setting [6]). In addition, the concentration giving a half-maximal response (EC50) is 157 ± 7 µM at GlyRα1β WT (HEK293, co-expressed with GlyRβ, whole-cell, 3–10000 μM β-alanine, read-out: EC50 β-alanine); 359 ± 19 µM at GlyRα1^Q177Rβ; 203 ± 17 µM on GlyRα1^Q177Nβ. Also, the “nH β-alanine” value worked out at 2.6 on GlyRα1β WT (setting [7]), 1.9 at GlyRα1^Q177Rβ (setting [7]) and 1.7 at GlyRα1^Q177Nβ (setting [7]). For the same molecule, the “absolute current amplitude at 10 mM β-alanine” value at GlyRα1β WT (setting [8]) is on record as 5.3 ± 2 nA; at GlyRα1^Q177Rβ (setting [8]) it was 4.5 ± 0.9 nA; at GlyRα1^Q177Nβ (setting [8]) it was 4.1 ± 0.8 nA.

In the case of `NCCS(=O)(=O)O` [taurine], the results for the “agonist-induced inward current at 100 μM taurine” value on GlyRα1β WT (setting [9]), at GlyRα1^Q177Rβ (setting [9]) and on GlyRα1^Q177Nβ (setting [9]) were 0.13 ± 0.06 nA, 0 ± 0 nA and 0.02 ± 0.001 nA, respectively. In addition, the “absolute current amplitude at 10 mM taurine (efficacy)” value was found to be 5.7 ± 0.4 nA on GlyRα1β WT (10 mM taurine, HEK293, whole-cell); 3.1 ± 0.4 nA at GlyRα1^Q177Rβ (setting [11]); 2.7 ± 0.5 nA on GlyRα1^Q177Nβ (setting [11]). Also, the EC50 at GlyRα1β WT (HEK293, co-expressed with GlyRβ, whole-cell, 3–10000 μM taurine, read-out: EC50 taurine) was found to be 593 ± 18 µM. The nH taurine at GlyRα1β WT (setting [10]) came to 2.3; on GlyRα1^Q177Rβ (setting [10]), 1.5; on GlyRα1^Q177Nβ (setting [10]) it was 1.6. For the same molecule, the “increase of the EC50 for taurine compared to GlyRα1β WT” value amounted to 5 fold at GlyRα1^Q177Rβ (human, hek293 cells) and 2.1 fold on GlyRα1^Q177Nβ (human, hek293 cells).

With `O=C1C[C@@H]2OCC=C3CN4CC[C@]56c7ccccc7N1[C@H]5[C@H]2[C@H]3C[C@H]46` [strychnine], in the assay with GlyRα1^Q177K, the “binding to the mutated receptor compared to GlyRα1 WT” value is on record as “bound with the same efficiency”.
